Patent US20200339691A1, “PROTEINACEOUS MOLECULES AND USES THEREFOR” (priority 2018, published 2020)
Where a SMILES comes first, the peptide text is derived from it. The star is where a group is joined. Myristoyl = CCCCCCCCCCCCCC(=O)*

Experiments:
[1] = tested on: CD44^hiCD24^lo CSCs in MDA-MB-231 cells; test: FACS analysis of CD44^hiCD24^lo cancer stem cells in MDA-MB-231 cells treated with P1 analogues; type: cell-based, human; details: 50 μM peptide, 48 hours; for CD44^hiCD24^lo CSCs (%) / COI, Live Single CD44^hiCD24^lo CSCs (Cell Count): n = 1; for Average Inhibition of CSCs (%) / CD44^hiCD24^lo CSCs (%) Repeat 1 / CD44^hiCD24^lo CSCs (%) Repeat 2 / CD44^hiCD24^lo CSCs (%) Repeat 3: n = 3
Description: Analogues of P1 (Table 6) were designed and synthesized in accordance with the procedure of Example 5. The ability of these analogues to inhibit cancer stem cells was determined using FACS analysis on MDA-MB-231 cells, which constitutively contain approximately 90% CD44^hiCD24^lo cancer stem cells, treated with the peptides.
(§1) Non-adherent cells were removed during the washing steps.

MDA-MB-231 cells = type: cell-based, human; details: 50 μM peptide, 48 hours, n = 1
Source text: as §1
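Throughout, for COI, Live Single Cells (Cell Count): live means Hoechst-negative events among single cells.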

CCCCCCCCCCCCCC(=O)N[C@@H](CC(C)C)C(=O)N[C@H](C(=O)N[C@@H](Cc1ccccc1)C(=O)N[C@H](C(=O)N[C@@H](Cc1ccccc1)C(=O)N[C@@H](CCC(=O)O)C(=O)N[C@@H](CC(C)C)C(=O)N[C@@H](CCCNC(=N)N)C(=O)N[C@@H](CCCCN)C(=O)NCC(=O)N[C@@H](CCCNC(=N)N)C(=O)N[C@@H](CCSC)C(=O)N[C@@H](CCSC)C(=O)N[C@@H](CC(=O)O)C(=O)N[C@H](C(=O)N[C@@H](CCCCN)C(=O)N[C@@H](CCCCN)C(N)=O)C(C)C)[C@@H](C)CC)[C@@H](C)O [Peptide 2853817, Myristoyl-LTFIFELRKGRMMDVKK-NH2] (Myristoyl-LTFIFELRKGRMMDVKK-NH2)
Inhibition of CSCs (%) Repeat 1 [1]: 88.00% | Inhibition of CSCs (%) Repeat 2 [1]: 91.08% | Inhibition of CSCs (%) Repeat 3 [1]: 82.27% | CD44^hiCD24^lo CSCs (%) [1]: 13.76% | COI, Live Single CD44^hiCD24^lo CSCs (Cell Count) [1]: 56 | Average Inhibition of CSCs (%) [1]: 87.12% | CD44^hiCD24^lo CSCs (%) Repeat 1 [1]: 10.75% | CD44^hiCD24^lo CSCs (%) Repeat 2 [1]: 8.00% | CD44^hiCD24^lo CSCs (%) Repeat 3 [1]: 15.91% | COI (Cell Count) (MDA-MB-231 cells): 511 | COI, Live Single Cells (Cell Count) (MDA-MB-231 cells): 407 | COI, Single (Cell Count) (MDA-MB-231 cells): 463 | Total Cell Count (MDA-MB-231 cells): 899

CCCCCCCCCCCCCC(=O)N[C@@H](CC(C)C)C(=O)N[C@H](C(=O)N[C@@H](Cc1ccccc1)C(=O)N[C@H](C(=O)N[C@@H](Cc1ccccc1)C(=O)N[C@H](C(=O)N[C@@H](CC(C)C)C(=O)N[C@@H](CCCNC(=N)N)C(=O)N[C@@H](CCCCN)C(=O)NCC(=O)N[C@@H](CCCNC(=N)N)C(=O)N[C@@H](CCSC)C(=O)N[C@@H](CCSC)C(=O)N[C@@H](CC(=O)O)C(=O)N[C@H](C(=O)N[C@@H](CCCCN)C(=O)N[C@@H](CCCCN)C(N)=O)C(C)C)C(C)C)[C@@H](C)CC)[C@@H](C)O [Peptide 2853818, Myristoyl-LTFIFVLRKGRMMDVKK-NH2] (Myristoyl-LTFIFVLRKGRMMDVKK-NH2)
Inhibition of CSCs (%) Repeat 1 [1]: 88.46% | Inhibition of CSCs (%) Repeat 2 [1]: 97.94% | Inhibition of CSCs (%) Repeat 3 [1]: 93.25% | CD44^hiCD24^lo CSCs (%) [1]: 25.00% | COI, Live Single CD44^hiCD24^lo CSCs (Cell Count) [1]: 5 | Average Inhibition of CSCs (%) [1]: 93.21% | CD44^hiCD24^lo CSCs (%) Repeat 1 [1]: 10.34% | CD44^hiCD24^lo CSCs (%) Repeat 2 [1]: 1.85% | CD44^hiCD24^lo CSCs (%) Repeat 3 [1]: 6.06% | COI (Cell Count) (MDA-MB-231 cells): 33 | COI, Live Single Cells (Cell Count) (MDA-MB-231 cells): 20 | COI, Single (Cell Count) (MDA-MB-231 cells): 25 | Total Cell Count (MDA-MB-231 cells): 275

CCCCCCCCCCCCCC(=O)N[C@@H](CC(C)C)C(=O)N[C@H](C(=O)N[C@@H](Cc1ccccc1)C(=O)N[C@H](C(=O)N[C@@H](Cc1ccccc1)C(=O)N[C@@H](CCCNC(=N)N)C(=O)N[C@@H](Cc1ccccc1)C(=O)N[C@@H](CCCNC(=N)N)C(=O)N[C@@H](CCCCN)C(=O)NCC(=O)N[C@@H](CCCNC(=N)N)C(=O)N[C@@H](CCSC)C(=O)N[C@@H](CCSC)C(=O)N[C@@H](CC(=O)O)C(=O)N[C@H](C(=O)N[C@@H](CCCCN)C(=O)N[C@@H](CCCCN)C(N)=O)C(C)C)[C@@H](C)CC)[C@@H](C)O [Peptide 2853819, Myristoyl-LTFIFRFRKGRMMDVKK-NH2] (Myristoyl-LTFIFRFRKGRMMDVKK-NH2)
Inhibition of CSCs (%) Repeat 1 [1]: 98.02% | Inhibition of CSCs (%) Repeat 2 [1]: 89.55% | Inhibition of CSCs (%) Repeat 3 [1]: 93.19% | CD44^hiCD24^lo CSCs (%) [1]: 2.62% | COI, Live Single CD44^hiCD24^lo CSCs (Cell Count) [1]: 5 | Average Inhibition of CSCs (%) [1]: 93.59% | CD44^hiCD24^lo CSCs (%) Repeat 1 [1]: 1.78% | CD44^hiCD24^lo CSCs (%) Repeat 2 [1]: 9.38% | CD44^hiCD24^lo CSCs (%) Repeat 3 [1]: 6.11% | COI (Cell Count) (MDA-MB-231 cells): 563 | COI, Live Single Cells (Cell Count) (MDA-MB-231 cells): 191 | COI, Single (Cell Count) (MDA-MB-231 cells): 372 | Total Cell Count (MDA-MB-231 cells): 4572

CCCCCCCCCCCCCC(=O)N[C@@H](CC(C)C)C(=O)N[C@@H](CCC(=O)O)C(=O)N[C@@H](Cc1ccccc1)C(=O)N[C@H](C(=O)N[C@@H](Cc1ccccc1)C(=O)N[C@@H](CCCNC(=N)N)C(=O)N[C@@H](CC(C)C)C(=O)N[C@@H](CCCNC(=N)N)C(=O)N[C@@H](CCCCN)C(=O)NCC(=O)N[C@@H](CCCNC(=N)N)C(=O)N[C@@H](CCSC)C(=O)N[C@@H](CCSC)C(=O)N[C@@H](CC(=O)O)C(=O)N[C@H](C(=O)N[C@@H](CCCCN)C(=O)N[C@@H](CCCCN)C(N)=O)C(C)C)[C@@H](C)CC [Peptide 2853804, Myristoyl-LEFIFRLRKGRMMDVKK-NH2] (Myristoyl-LEFIFRLRKGRMMDVKK-NH2)
Inhibition of CSCs (%) Repeat 1 [1]: 85.86% | Inhibition of CSCs (%) Repeat 2 [1]: 80.73% | Inhibition of CSCs (%) Repeat 3 [1]: 86.58% | CD44^hiCD24^lo CSCs (%) [1]: 13.77% | COI, Live Single CD44^hiCD24^lo CSCs (Cell Count) [1]: 19 | Average Inhibition of CSCs (%) [1]: 84.39% | CD44^hiCD24^lo CSCs (%) Repeat 1 [1]: 12.67% | CD44^hiCD24^lo CSCs (%) Repeat 2 [1]: 17.29% | CD44^hiCD24^lo CSCs (%) Repeat 3 [1]: 12.05% | COI (Cell Count) (MDA-MB-231 cells): 360 | COI, Live Single Cells (Cell Count) (MDA-MB-231 cells): 138 | COI, Single (Cell Count) (MDA-MB-231 cells): 203 | Total Cell Count (MDA-MB-231 cells): 1384

CCCCCCCCCCCCCC(=O)N[C@@H](CC(C)C)C(=O)N[C@H](C(=O)N[C@@H](Cc1ccccc1)C(=O)N[C@H](C(=O)N[C@@H](Cc1ccccc1)C(=O)N[C@@H](CCCNC(=N)N)C(=O)N[C@@H](CC(C)C)C(=O)N[C@@H](CCCCN)C(=O)N[C@@H](CCCCN)C(=O)NCC(=O)N[C@@H](CCCNC(=N)N)C(=O)N[C@@H](CCSC)C(=O)N[C@@H](CCSC)C(=O)N[C@@H](CC(=O)O)C(=O)N[C@H](C(=O)N[C@@H](CCCCN)C(=O)N[C@@H](CCCCN)C(N)=O)C(C)C)[C@@H](C)CC)[C@@H](C)O [Peptide 2853824, Myristoyl-LTFIFRLKKGRMMDVKK-NH2] (Myristoyl-LTFIFRLKKGRMMDVKK-NH2)
Inhibition of CSCs (%) Repeat 1 [1]: 77.86% | Inhibition of CSCs (%) Repeat 2 [1]: 79.50% | Inhibition of CSCs (%) Repeat 3 [1]: 76.91% | CD44^hiCD24^lo CSCs (%) [1]: 16.54% | COI, Live Single CD44^hiCD24^lo CSCs (Cell Count) [1]: 619 | Average Inhibition of CSCs (%) [1]: 78.09% | CD44^hiCD24^lo CSCs (%) Repeat 1 [1]: 19.85% | CD44^hiCD24^lo CSCs (%) Repeat 2 [1]: 18.39% | CD44^hiCD24^lo CSCs (%) Repeat 3 [1]: 20.72% | COI (Cell Count) (MDA-MB-231 cells): 4232 | COI, Live Single Cells (Cell Count) (MDA-MB-231 cells): 3743 | COI, Single (Cell Count) (MDA-MB-231 cells): 3768 | Total Cell Count (MDA-MB-231 cells): 5455

CCCCCCCCCCCCCC(=O)N[C@H](C(=O)N[C@@H](Cc1ccccc1)C(=O)N[C@H](C(=O)N[C@@H](Cc1ccccc1)C(=O)N[C@@H](CCCNC(=N)N)C(=O)N[C@@H](C)C(=O)N[C@@H](CCCNC(=N)N)C(=O)N[C@@H](CCCCN)C(=O)NCC(=O)N[C@@H](CCCNC(=N)N)C(=O)N[C@@H](CCSC)C(=O)N[C@@H](CCSC)C(=O)N[C@@H](CC(=O)O)C(=O)N[C@H](C(=O)N[C@@H](CCCCN)C(=O)N[C@@H](CCCCN)C(N)=O)C(C)C)[C@@H](C)CC)[C@@H](C)O [Peptide 2815307, Myristoyl-TFIFRARKGRMMDVKK-NH2] (Myristoyl-TFIFRARKGRMMDVKK-NH2)
Inhibition of CSCs (%) Repeat 1 [1]: 24.79% | Inhibition of CSCs (%) Repeat 2 [1]: 25.54% | Inhibition of CSCs (%) Repeat 3 [1]: 36.94% | CD44^hiCD24^lo CSCs (%) [1]: 62.77% | COI, Live Single CD44^hiCD24^lo CSCs (Cell Count) [1]: 86 | Average Inhibition of CSCs (%) [1]: 29.09% | CD44^hiCD24^lo CSCs (%) Repeat 1 [1]: 67.40% | CD44^hiCD24^lo CSCs (%) Repeat 2 [1]: 66.80% | CD44^hiCD24^lo CSCs (%) Repeat 3 [1]: 56.59% | COI (Cell Count) (MDA-MB-231 cells): 182 | COI, Live Single Cells (Cell Count) (MDA-MB-231 cells): 137 | COI, Single (Cell Count) (MDA-MB-231 cells): 164 | Total Cell Count (MDA-MB-231 cells): 10681

CCCCCCCCCCCCCC(=O)N[C@@H](CC(C)C)C(=O)N[C@H](C(=O)N[C@@H](Cc1ccccc1)C(=O)N[C@H](C(=O)N[C@@H](Cc1ccccc1)C(=O)N[C@@H](CCCNC(=N)N)C(=O)N[C@@H](CC(C)C)C(=O)N[C@@H](CCCNC(=N)N)C(=O)N[C@@H](CCCCN)C(=O)NCC(=O)N[C@@H](CCCNC(=N)N)C(=O)N[C@@H](CCSC)C(=O)N[C@@H](CCSC)C(=O)N[C@@H](CC(=O)O)C(=O)N[C@H](C(=O)N[C@@H](CCC(=O)O)C(=O)N[C@@H](CCCCN)C(N)=O)C(C)C)[C@@H](C)CC)[C@@H](C)O [Peptide 2853841, Myristoyl-LTFIFRLRKGRMMDVEK-NH2] (Myristoyl-LTFIFRLRKGRMMDVEK-NH2)
Inhibition of CSCs (%) Repeat 1 [1]: 78.06% | Inhibition of CSCs (%) Repeat 2 [1]: 79.59% | Inhibition of CSCs (%) Repeat 3 [1]: 80.30% | CD44^hiCD24^lo CSCs (%) [1]: 11.40% | COI, Live Single CD44^hiCD24^lo CSCs (Cell Count) [1]: 147 | Average Inhibition of CSCs (%) [1]: 79.32% | CD44^hiCD24^lo CSCs (%) Repeat 1 [1]: 19.67% | CD44^hiCD24^lo CSCs (%) Repeat 2 [1]: 18.31% | CD44^hiCD24^lo CSCs (%) Repeat 3 [1]: 17.67% | COI (Cell Count) (MDA-MB-231 cells): 2072 | COI, Live Single Cells (Cell Count) (MDA-MB-231 cells): 1289 | COI, Single (Cell Count) (MDA-MB-231 cells): 1594 | Total Cell Count (MDA-MB-231 cells): 6480
